# Experimental data reported in US6566084B1, “Catalytic antibodies against cocaine and methods of using and producing same” (priority 1992, dated 2003).
# Tests used:
# [1] = in vivo; cited from earlier work
# [2] = Spontaneous hydrolysis of the methyl ester of cocaine to benzoyl ecgonine (HPLC); settings: buffer, pH 7
# mAb 6A12 = experiment: Inhibition of 6A12-catalyzed cocaine hydrolysis; settings: 1 mM
# mAb 3B9 = experiment: Inhibition of 3B9-catalyzed cocaine hydrolysis; format: biochemical, BALB/c mice; settings: 1 mM
# [3] = equine BChE, ph7.4, published sources; cited from earlier work
compound,measurement,setting,value
COC(=O)[C@H]1[C@@H](OC(=O)c2ccccc2)C[C@@H]2CC[C@H]1N2C [cocaine],dose excreted unchanged in the urine,[1],< 10%
same,half-life,[2],20 h
CNC(=O)Oc1ccc2c(c1)[C@]1(C)CCN(C)[C@@H]1N2C [eserine],effect of serum esterase inhibitor on enzyme,mAb 6A12,unaffected
same,effect of serum esterase inhibitor on enzyme,mAb 3B9,unaffected
"BChE: equine butyrylcholinesterase, the principal cocaine esterase in serum",Kcat,[3],0.02 s⁻¹
same,Km,[3],38 µM
